Test results as given in ChEMBL document CHEMBL1201862, “PubChem BioAssay data set” (2004).
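Following 48 hours of exposure in 96-well plates, responses at five concentrations were used to interpolate endpoints linearly. At the GI50, growth is halved.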 Active and inactive are the calls of the source. Cut-off read from the data, not from the text of the source: active = GI50 up to about 1.1 µM and inactive = higher.

Assays:
Test in all cases: inhibition of tumour cell growth, NCI panel, 48 h
SNB-19 = system: SNB-19
NCI-H226 = system: NCI-H226
OVCAR-8 = system: OVCAR-8
SNB-75 = system: SNB-75
UO-31 = system: UO-31
DMS-273 = system: DMS-273
NCI-H522 = system: NCI-H522
SF-539 = system: SF-539
NCI-H23 = system: NCI-H23
UACC-62 = system: UACC-62
HL-60 = system: HL-60
SN12C = system: SN12C
EKVX = system: EKVX
DMS-114 = system: DMS-114
HOP-62 = system: HOP-62
CCRF-CEM = system: CCRF-CEM
SK-MEL-5 = system: SK-MEL-5
COLO 205 = system: COLO 205
UACC-257 = system: UACC-257
SK-MEL-2 = system: SK-MEL-2
ACHN = system: ACHN
LXFL 529 = system: LXFL 529
MOLT-4 = system: MOLT-4
RXF 393 = system: RXF 393
HCC 2998 = system: HCC 2998
DLD-1 = system: DLD-1
CAKI-1 = system: CAKI-1
M14 = system: M14
HOP-92 = system: HOP-92
IGROV-1 = system: IGROV-1
HT-29 = system: HT-29
A498 = system: A498
RXF 631 = system: RXF 631
SNB-78 = system: SNB-78
OVCAR-3 = system: OVCAR-3
SF-295 = system: SF-295
SK-OV-3 = system: SK-OV-3
SW-620 = system: SW-620
TK-10 = system: TK-10
Malme-3M = system: Malme-3M
SK-MEL-28 = system: SK-MEL-28
A549 = system: A549
OVCAR-4 = system: OVCAR-4
U-251 = system: U-251
LOX IMVI = system: LOX IMVI
KM12 = system: KM12
SF-268 = system: SF-268
NCI-H460 = system: NCI-H460
OVCAR-5 = system: OVCAR-5
KM-20L2 = system: KM-20L2
K562 = system: K562
HCT-116 = system: HCT-116
HOP-18 = system: HOP-18
HCT-15 = system: HCT-15
M19-MEL = system: M19-MEL
786-0 = system: 786-0

Question: Which results are given for CCN1C(=O)C(=CN)C(=O)N(CC)C1=O?
Answer: GI50 (SNB-19): > 100 µM (inactive); GI50 (NCI-H226): > 100 µM (inactive); GI50 (OVCAR-8): > 100 µM (inactive); GI50 (SNB-75): 14.7 µM (inactive); GI50 (UO-31): 58.2 µM (inactive); GI50 (DMS-273): > 100 µM (inactive); GI50 (NCI-H522): > 100 µM (inactive); GI50 (SF-539): > 100 µM (inactive); GI50 (NCI-H23): > 100 µM (inactive); GI50 (UACC-62): > 100 µM (inactive); GI50 (HL-60): > 100 µM (inactive); GI50 (SN12C): > 100 µM (inactive); GI50 (EKVX): > 100 µM (inactive); GI50 (DMS-114): > 100 µM (inactive); GI50 (HOP-62): > 100 µM (inactive); GI50 (CCRF-CEM): > 100 µM (inactive); GI50 (SK-MEL-5): > 100 µM (inactive); GI50 (COLO 205): > 100 µM (inactive); GI50 (UACC-257): > 100 µM (inactive); GI50 (SK-MEL-2): > 100 µM (inactive); GI50 (ACHN): > 100 µM (inactive); GI50 (LXFL 529): > 100 µM (inactive); GI50 (MOLT-4): > 100 µM (inactive); GI50 (RXF 393): > 100 µM (inactive); GI50 (HCC 2998): > 100 µM (inactive); GI50 (DLD-1): > 100 µM (inactive); GI50 (CAKI-1): > 100 µM (inactive); GI50 (M14): > 100 µM (inactive); GI50 (HOP-92): 38.8 µM (inactive); GI50 (IGROV-1): > 100 µM (inactive); GI50 (HT-29): > 100 µM (inactive); GI50 (A498): > 100 µM (inactive); GI50 (RXF 631): > 100 µM (inactive); GI50 (SNB-78): > 100 µM (inactive); GI50 (OVCAR-3): > 100 µM (inactive); GI50 (SF-295): > 100 µM (inactive); GI50 (SK-OV-3): > 100 µM (inactive); GI50 (SW-620): > 100 µM (inactive); GI50 (TK-10): 44.5 µM (inactive); GI50 (Malme-3M): > 100 µM (inactive); GI50 (SK-MEL-28): > 100 µM (inactive); GI50 (A549): > 100 µM (inactive); GI50 (OVCAR-4): > 100 µM (inactive); GI50 (U-251): 10 µM (inactive); GI50 (LOX IMVI): > 100 µM (inactive); GI50 (KM12): > 100 µM (inactive); GI50 (SF-268): > 100 µM (inactive); GI50 (NCI-H460): > 100 µM (inactive); GI50 (OVCAR-5): > 100 µM (inactive); GI50 (KM-20L2): > 100 µM (inactive); GI50 (K562): > 100 µM (inactive); GI50 (HCT-116): > 100 µM (inactive); GI50 (HOP-18): 24.7 µM (inactive); GI50 (HCT-15): > 100 µM; GI50 (M19-MEL): > 100 µM (inactive); GI50 (786-0): > 100 µM (inactive)

Question: C1C[N+]23CCC[N+]2(C1)CCC3 (configuration not stated) was tested. Which GI50 (SNB-19) did it give?
Answer: > 100 µM (inactive)

Question: And the GI50 (NCI-H226)?
Answer: > 100 µM (inactive)

Question: What about the GI50 (OVCAR-8) of the same molecule?
Answer: > 100 µM (inactive)

Question: And the GI50 (SNB-75)?
Answer: 97.5 µM (inactive)

Question: And the GI50 (UO-31)?
Answer: 99.8 µM (inactive)

Question: And the GI50 (DMS-273)?
Answer: > 100 µM (inactive)

Question: And the GI50 (NCI-H522)?
Answer: > 100 µM (inactive)

Question: And the GI50 (SF-539)?
Answer: > 100 µM (inactive)

Question: What about the GI50 (NCI-H23) of the same molecule?
Answer: > 100 µM (inactive)

Question: What about the GI50 (UACC-62) of the same molecule?
Answer: > 100 µM (inactive)

Question: And the GI50 (HL-60)?
Answer: 31.1 µM (inactive)

Question: And the GI50 (SN12C)?
Answer: > 100 µM (inactive)

Question: What about the GI50 (EKVX) of the same molecule?
Answer: > 100 µM (inactive)

Question: And the GI50 (DMS-114)?
Answer: > 100 µM (inactive)

Question: What about the GI50 (HOP-62) of the same molecule?
Answer: > 100 µM (inactive)

Question: And the GI50 (CCRF-CEM)?
Answer: 31.6 µM (inactive)

Question: And the GI50 (SK-MEL-5)?
Answer: > 100 µM (inactive)

Question: And the GI50 (COLO 205)?
Answer: > 100 µM (inactive)

Question: What about the GI50 (UACC-257) of the same molecule?
Answer: > 100 µM (inactive)

Question: And the GI50 (SK-MEL-2)?
Answer: > 100 µM (inactive)

Question: And the GI50 (ACHN)?
Answer: > 100 µM (inactive)

Question: And the GI50 (LXFL 529)?
Answer: > 100 µM (inactive)

Question: What about the GI50 (MOLT-4) of the same molecule?
Answer: > 100 µM (inactive)

Question: What about the GI50 (RXF 393) of the same molecule?
Answer: > 100 µM (inactive)

Question: What about the GI50 (HCC 2998) of the same molecule?
Answer: > 100 µM (inactive)

Question: And the GI50 (DLD-1)?
Answer: > 100 µM (inactive)

Question: What about the GI50 (CAKI-1) of the same molecule?
Answer: > 100 µM (inactive)

Question: And the GI50 (M14)?
Answer: > 100 µM (inactive)

Question: What about the GI50 (HOP-92) of the same molecule?
Answer: > 100 µM (inactive)

Question: What about the GI50 (IGROV-1) of the same molecule?
Answer: > 100 µM (inactive)

Question: What about the GI50 (HT-29) of the same molecule?
Answer: > 100 µM (inactive)

Question: And the GI50 (A498)?
Answer: > 100 µM (inactive)

Question: And the GI50 (RXF 631)?
Answer: > 100 µM (inactive)

Question: And the GI50 (SNB-78)?
Answer: > 100 µM (inactive)

Question: What about the GI50 (OVCAR-3) of the same molecule?
Answer: > 100 µM (inactive)

Question: And the GI50 (SF-295)?
Answer: > 100 µM (inactive)

Question: And the GI50 (SK-OV-3)?
Answer: > 100 µM (inactive)

Question: And the GI50 (SW-620)?
Answer: > 100 µM (inactive)

Question: What about the GI50 (TK-10) of the same molecule?
Answer: > 100 µM (inactive)

Question: What about the GI50 (Malme-3M) of the same molecule?
Answer: > 100 µM (inactive)

Question: And the GI50 (SK-MEL-28)?
Answer: > 100 µM (inactive)

Question: What about the GI50 (A549) of the same molecule?
Answer: > 100 µM (inactive)

Question: And the GI50 (OVCAR-4)?
Answer: > 100 µM (inactive)

Question: And the GI50 (U-251)?
Answer: > 100 µM (inactive)

Question: And the GI50 (LOX IMVI)?
Answer: > 100 µM (inactive)

Question: And the GI50 (KM12)?
Answer: > 100 µM (inactive)

Question: What about the GI50 (SF-268) of the same molecule?
Answer: > 100 µM (inactive)

Question: And the GI50 (NCI-H460)?
Answer: > 100 µM (inactive)

Question: What about the GI50 (OVCAR-5) of the same molecule?
Answer: > 100 µM (inactive)

Question: What about the GI50 (KM-20L2) of the same molecule?
Answer: > 100 µM (inactive)

Question: And the GI50 (K562)?
Answer: > 100 µM (inactive)

Question: What about the GI50 (HCT-116) of the same molecule?
Answer: > 100 µM (inactive)

Question: What about the GI50 (HOP-18) of the same molecule?
Answer: > 100 µM (inactive)

Question: What about the GI50 (HCT-15) of the same molecule?
Answer: > 100 µM

Question: And the GI50 (M19-MEL)?
Answer: > 100 µM (inactive)

Question: What about the GI50 (786-0) of the same molecule?
Answer: > 100 µM (inactive)
